Consider four cell lines from the supplement of paper PMC10307832.

What all share (experiment): relative viability (nuclei count vs DMSO), 5 days (fraction); higher = more cells survive
Compound in the assay “OSI-027 + Dasatinib”: COc1cccc2cc(-c3nc([C@H]4CC[C@H](C(=O)O)CC4)n4ncnc(N)c34)[nH]c12 [OSI-027] + Cc1nc(Nc2ncc(C(=O)Nc3c(C)cccc3Cl)s2)cc(N2CCN(CCO)CC2)n1 [Dasatinib] (partner 0.075 µM)
A digest of the protocol:
(§1)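 Medians of duplicate plates are given as relative viability. That measure is the nuclei count in treated wells divided by the count in vehicle wells. Counts were taken on 4× images of lung cancer cell lines in 1536-well plates, 5 days after pin-tool dosing the day after seeding with one drug alone or a fixed anchor-drug dose plus five library-drug doses (not always all listed) in √10 steps.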

Compound in the assay “Alpelisib + Lapatinib”: Cc1nc(NC(=O)N2CCC[C@H]2C(N)=O)sc1-c1ccnc(C(C)(C)C(F)(F)F)c1 [Alpelisib] + CS(=O)(=O)CCNCc1ccc(-c2ccc3ncnc(Nc4ccc(OCc5cccc(F)c5)c(Cl)c4)c3c2)o1 [Lapatinib] (partner 2 µM)
The method, boiled down:
as §1

Compound in the assay “Alpelisib + Crizotinib”: Cc1nc(NC(=O)N2CCC[C@H]2C(N)=O)sc1-c1ccnc(C(C)(C)C(F)(F)F)c1 [Alpelisib] + C[C@@H](Oc1cc(-c2cnn(C3CCNCC3)c2)cnc1N)c1c(Cl)ccc(F)c1Cl [Crizotinib] (partner 1 µM)
The method, boiled down:
as §1

Compound in the assay “Alpelisib + Olaparib”: Cc1nc(NC(=O)N2CCC[C@H]2C(N)=O)sc1-c1ccnc(C(C)(C)C(F)(F)F)c1 [Alpelisib] + O=C(c1cc(Cc2n[nH]c(=O)c3ccccc23)ccc1F)N1CCN(C(=O)C2CC2)CC1 [Olaparib] (partner 8 µM)
A digest of the protocol: as §1

For the cell line NCI-H2023, the relative viability with OSI-027 + Dasatinib (first compound 0.01 µM) turned out to be 0.588; in the assay with OSI-027 + Dasatinib (first compound 0.03162 µM), 0.621; with OSI-027 + Dasatinib (first compound 0.1 µM), 0.505; with OSI-027 + Dasatinib (first compound 0.3162 µM), 0.338; with OSI-027 + Dasatinib (first compound 1 µM), 0.192; with Alpelisib + Lapatinib (first compound 0.04 µM), 0.717. For the same cell line, the relative viability in the assay with Alpelisib + Lapatinib (first compound 0.1265 µM) stood at 0.617; in the assay with Alpelisib + Lapatinib (first compound 0.4 µM) it was 0.312; with Alpelisib + Lapatinib (first compound 1.265 µM), 0.58; with Alpelisib + Lapatinib (first compound 4 µM) it was 0.495; with Alpelisib + Crizotinib (first compound 0.04 µM), 0.53; with Alpelisib + Crizotinib (first compound 0.1265 µM), 0.565. Also, the relative viability with Alpelisib + Crizotinib (first compound 0.4 µM) amounted to 0.476; with Alpelisib + Crizotinib (first compound 1.265 µM) it was 0.389; with Alpelisib + Crizotinib (first compound 4 µM) it was 0.257; with Alpelisib + Olaparib (first compound 0.04 µM), 0.436; with Alpelisib + Olaparib (first compound 0.1265 µM) it was 0.432; with Alpelisib + Olaparib (first compound 0.4 µM), 0.479. Also, the relative viability amounted to 0.383 in the assay with Alpelisib + Olaparib (first compound 1.265 µM) and 0.263 in the assay with Alpelisib + Olaparib (first compound 4 µM).

On to NCI-H2085, for which the relative viability with OSI-027 + Dasatinib (first compound 0.01 µM) was determined as 0.199; in the assay with OSI-027 + Dasatinib (first compound 0.03162 µM) it was 0.222; in the assay with OSI-027 + Dasatinib (first compound 0.1 µM), 0.188; in the assay with OSI-027 + Dasatinib (first compound 0.3162 µM), 0.227; with OSI-027 + Dasatinib (first compound 1 µM), 0.211; in the assay with Alpelisib + Lapatinib (first compound 0.04 µM) it was 0.742. Further, the relative viability with Alpelisib + Lapatinib (first compound 0.1265 µM) was found to be 0.624; in the assay with Alpelisib + Lapatinib (first compound 0.4 µM), 0.839; with Alpelisib + Lapatinib (first compound 1.265 µM), 0.635; with Alpelisib + Lapatinib (first compound 4 µM), 0.623; in the assay with Alpelisib + Crizotinib (first compound 0.04 µM), 0.808; with Alpelisib + Crizotinib (first compound 0.1265 µM) it was 0.769. Also, the relative viability with Alpelisib + Crizotinib (first compound 0.4 µM) came to 0.758; in the assay with Alpelisib + Crizotinib (first compound 1.265 µM), 0.814; with Alpelisib + Crizotinib (first compound 4 µM) it was 0.796; with Alpelisib + Olaparib (first compound 0.04 µM), 0.754; in the assay with Alpelisib + Olaparib (first compound 0.1265 µM), 0.75; with Alpelisib + Olaparib (first compound 0.4 µM), 0.794. Also, the relative viability with Alpelisib + Olaparib (first compound 1.265 µM) was 0.733; in the assay with Alpelisib + Olaparib (first compound 4 µM) it was 0.711.

In the case of NCI-H2087, the relative viability with OSI-027 + Dasatinib (first compound 0.01 µM) turned out to be 0.856; in the assay with OSI-027 + Dasatinib (first compound 0.03162 µM), 0.937; with OSI-027 + Dasatinib (first compound 0.1 µM) it was 0.923; with OSI-027 + Dasatinib (first compound 0.3162 µM), 0.611; with OSI-027 + Dasatinib (first compound 1 µM), 0.453; in the assay with Alpelisib + Lapatinib (first compound 0.04 µM) it was 1.02. In addition, the relative viability in the assay with Alpelisib + Lapatinib (first compound 0.1265 µM) turned out to be 0.978; with Alpelisib + Lapatinib (first compound 0.4 µM), 1.26; in the assay with Alpelisib + Lapatinib (first compound 1.265 µM), 0.703; in the assay with Alpelisib + Lapatinib (first compound 4 µM), 0.97; with Alpelisib + Crizotinib (first compound 0.04 µM), 0.781; with Alpelisib + Crizotinib (first compound 0.1265 µM), 0.892. In addition, the relative viability in the assay with Alpelisib + Crizotinib (first compound 0.4 µM) worked out at 0.958; in the assay with Alpelisib + Crizotinib (first compound 1.265 µM), 0.732; in the assay with Alpelisib + Crizotinib (first compound 4 µM), 0.658; with Alpelisib + Olaparib (first compound 0.04 µM), 0.557; with Alpelisib + Olaparib (first compound 0.1265 µM), 0.514; in the assay with Alpelisib + Olaparib (first compound 0.4 µM), 0.653. Further, the relative viability with Alpelisib + Olaparib (first compound 1.265 µM) was 0.483; with Alpelisib + Olaparib (first compound 4 µM), 0.444.

Regarding NCI-H2126, the relative viability with OSI-027 + Dasatinib (first compound 0.01 µM) is 0.562; with OSI-027 + Dasatinib (first compound 0.03162 µM), 0.56; with OSI-027 + Dasatinib (first compound 0.1 µM) it was 0.504; in the assay with OSI-027 + Dasatinib (first compound 0.3162 µM), 0.374; with OSI-027 + Dasatinib (first compound 1 µM), 0.45; with Alpelisib + Lapatinib (first compound 0.04 µM), 0.75. For the same cell line, the relative viability in the assay with Alpelisib + Lapatinib (first compound 0.1265 µM) was determined as 0.704; with Alpelisib + Lapatinib (first compound 0.4 µM), 0.701; in the assay with Alpelisib + Lapatinib (first compound 1.265 µM) it was 0.567; with Alpelisib + Lapatinib (first compound 4 µM) it was 0.499; with Alpelisib + Crizotinib (first compound 0.04 µM), 1.02; in the assay with Alpelisib + Crizotinib (first compound 0.1265 µM) it was 0.957. The relative viability in the assay with Alpelisib + Crizotinib (first compound 0.4 µM) turned out to be 0.992; with Alpelisib + Crizotinib (first compound 1.265 µM), 0.88; with Alpelisib + Crizotinib (first compound 4 µM), 0.735; with Alpelisib + Olaparib (first compound 0.04 µM), 0.887; with Alpelisib + Olaparib (first compound 0.1265 µM) it was 0.864; with Alpelisib + Olaparib (first compound 0.4 µM), 0.871. Besides, the relative viability was determined as 0.76 with Alpelisib + Olaparib (first compound 1.265 µM) and 0.659 with Alpelisib + Olaparib (first compound 4 µM).
